Measurements as given in PMC7497641, “Neurotropic activity and safety of methylene-cycloalkylacetate (MCA) derivative 3-(3-allyl-2-methylenecyclohexyl) propanoic acid” (ACS Chemical Neuroscience, 2020).

Legend:
[1] = target: Adrenergic Receptor α1A (ADRA1A) (Homo sapiens, UniProt P35348); assay: SAFETYscan GPCR Calcium Flux; format: cell-based
[2] = target: Arginine Vasopressin Receptor 1A (AVPR1A) (Homo sapiens, UniProt P37288); assay: SAFETYscan GPCR Calcium Flux; format: cell-based; conditions: read-out: RC50 (the source's name)
Sequence of Arginine Vasopressin Receptor 1A (AVPR1A) (P37288 whole entry): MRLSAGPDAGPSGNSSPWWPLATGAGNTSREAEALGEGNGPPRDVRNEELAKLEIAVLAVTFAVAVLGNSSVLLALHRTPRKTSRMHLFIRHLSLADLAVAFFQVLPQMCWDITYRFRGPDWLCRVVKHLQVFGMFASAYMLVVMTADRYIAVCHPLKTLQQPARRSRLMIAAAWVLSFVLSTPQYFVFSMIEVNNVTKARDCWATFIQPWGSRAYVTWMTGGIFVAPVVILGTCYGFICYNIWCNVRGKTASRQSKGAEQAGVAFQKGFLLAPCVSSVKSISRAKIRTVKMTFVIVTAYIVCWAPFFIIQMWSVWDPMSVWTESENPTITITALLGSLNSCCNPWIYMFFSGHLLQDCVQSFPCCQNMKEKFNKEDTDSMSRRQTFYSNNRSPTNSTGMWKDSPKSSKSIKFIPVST

[3] = target: T1, Cannabinoid Receptor 1 (CNR1) (Homo sapiens, UniProt P21554); assay: SAFETYscan GPCR cAMP; format: cell-based
T1 construct: host or cells: cAMP Hunter cell lines
T1 sequence (P21554 whole entry): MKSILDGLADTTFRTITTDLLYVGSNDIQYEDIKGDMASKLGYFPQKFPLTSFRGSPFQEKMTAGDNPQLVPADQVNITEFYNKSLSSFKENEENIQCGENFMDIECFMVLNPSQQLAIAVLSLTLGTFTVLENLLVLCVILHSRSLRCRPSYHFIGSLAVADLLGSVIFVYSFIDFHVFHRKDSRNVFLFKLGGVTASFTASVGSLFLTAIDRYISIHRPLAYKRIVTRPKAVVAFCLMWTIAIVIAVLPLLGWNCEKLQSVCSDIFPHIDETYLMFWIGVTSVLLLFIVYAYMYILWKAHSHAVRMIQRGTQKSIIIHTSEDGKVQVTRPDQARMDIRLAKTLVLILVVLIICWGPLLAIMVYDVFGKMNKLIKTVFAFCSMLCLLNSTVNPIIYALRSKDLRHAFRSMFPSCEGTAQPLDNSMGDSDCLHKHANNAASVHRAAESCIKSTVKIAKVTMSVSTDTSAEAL

[4] = target: T2, Cannabinoid Receptor 2 (CNR2) (Homo sapiens, UniProt P34972); assay: SAFETYscan GPCR cAMP; format: cell-based
T2 construct: host or cells: cAMP Hunter cell lines
T2 sequence (P34972 whole entry): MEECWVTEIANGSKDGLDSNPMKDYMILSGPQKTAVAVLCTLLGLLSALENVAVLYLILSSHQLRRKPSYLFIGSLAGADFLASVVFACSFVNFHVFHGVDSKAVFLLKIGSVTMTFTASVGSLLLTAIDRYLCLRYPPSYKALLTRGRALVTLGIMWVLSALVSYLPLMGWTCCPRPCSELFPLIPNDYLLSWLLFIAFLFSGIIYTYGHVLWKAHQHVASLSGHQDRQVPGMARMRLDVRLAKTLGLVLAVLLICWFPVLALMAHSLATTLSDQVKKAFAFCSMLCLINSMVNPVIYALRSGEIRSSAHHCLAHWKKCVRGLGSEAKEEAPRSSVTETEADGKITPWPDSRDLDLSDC

[5] = target: T3, Kv11.1, the alpha subunit of a potassium ion channel (hERG) (Homo sapiens, UniProt Q12809); assay: cell-based; conditions: Blocker
T3 construct: host or cells: unnamed DiscoverX cell line

[6] = target: T4, Vascular endothelial growth factor receptor 2 (KDR tyrosine kinase) (VEGFR2) (Homo sapiens, UniProt P35968); assay: SAFETYscan KINOMEscan binding assay; conditions: Inhibitor
T4 construct: host or cells: E. coli BL21-derived host (T7 phage) or HEK-293
T4 sequence (P35968 20-1356): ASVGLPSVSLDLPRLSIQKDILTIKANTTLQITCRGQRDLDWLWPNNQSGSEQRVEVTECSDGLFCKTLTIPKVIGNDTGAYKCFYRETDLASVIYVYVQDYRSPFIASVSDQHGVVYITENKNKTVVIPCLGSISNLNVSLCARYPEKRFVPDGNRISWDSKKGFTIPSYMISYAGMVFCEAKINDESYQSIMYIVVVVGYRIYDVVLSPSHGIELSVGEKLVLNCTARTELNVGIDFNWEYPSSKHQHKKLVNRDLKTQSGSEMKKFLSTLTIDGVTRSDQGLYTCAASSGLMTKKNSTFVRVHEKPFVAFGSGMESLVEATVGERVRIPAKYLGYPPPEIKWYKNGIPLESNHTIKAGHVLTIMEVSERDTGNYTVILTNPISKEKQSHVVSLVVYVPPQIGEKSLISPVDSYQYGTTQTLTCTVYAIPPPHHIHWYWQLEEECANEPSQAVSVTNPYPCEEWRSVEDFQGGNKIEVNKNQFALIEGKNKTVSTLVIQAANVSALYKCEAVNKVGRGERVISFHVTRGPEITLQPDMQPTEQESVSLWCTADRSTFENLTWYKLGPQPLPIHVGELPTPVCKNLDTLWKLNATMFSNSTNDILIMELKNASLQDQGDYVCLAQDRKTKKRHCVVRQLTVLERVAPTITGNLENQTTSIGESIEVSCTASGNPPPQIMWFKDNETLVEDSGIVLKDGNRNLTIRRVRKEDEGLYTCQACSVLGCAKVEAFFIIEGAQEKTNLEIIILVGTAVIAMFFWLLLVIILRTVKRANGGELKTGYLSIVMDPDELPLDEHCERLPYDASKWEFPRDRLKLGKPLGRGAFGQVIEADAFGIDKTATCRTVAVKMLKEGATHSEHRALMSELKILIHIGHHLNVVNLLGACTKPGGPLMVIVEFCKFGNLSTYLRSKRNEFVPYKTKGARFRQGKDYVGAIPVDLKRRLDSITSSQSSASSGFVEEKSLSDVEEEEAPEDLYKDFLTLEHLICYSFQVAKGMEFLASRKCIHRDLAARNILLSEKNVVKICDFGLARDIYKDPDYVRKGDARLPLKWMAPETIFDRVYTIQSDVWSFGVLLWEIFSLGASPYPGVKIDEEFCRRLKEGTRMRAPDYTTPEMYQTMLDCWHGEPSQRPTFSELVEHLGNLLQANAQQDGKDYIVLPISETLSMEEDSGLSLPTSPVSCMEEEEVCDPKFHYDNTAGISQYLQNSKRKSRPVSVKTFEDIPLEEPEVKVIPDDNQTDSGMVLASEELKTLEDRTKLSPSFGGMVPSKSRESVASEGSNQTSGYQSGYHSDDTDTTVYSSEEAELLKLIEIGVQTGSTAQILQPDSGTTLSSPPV

[7] = target: Nuclear Hormone Androgen Receptor (AR) (Homo sapiens, UniProt P10275); assay: SAFETYscan Nuclear Hormone Receptor assay; format: cell-based
Sequence of Nuclear Hormone Androgen Receptor (AR) (P10275 whole entry): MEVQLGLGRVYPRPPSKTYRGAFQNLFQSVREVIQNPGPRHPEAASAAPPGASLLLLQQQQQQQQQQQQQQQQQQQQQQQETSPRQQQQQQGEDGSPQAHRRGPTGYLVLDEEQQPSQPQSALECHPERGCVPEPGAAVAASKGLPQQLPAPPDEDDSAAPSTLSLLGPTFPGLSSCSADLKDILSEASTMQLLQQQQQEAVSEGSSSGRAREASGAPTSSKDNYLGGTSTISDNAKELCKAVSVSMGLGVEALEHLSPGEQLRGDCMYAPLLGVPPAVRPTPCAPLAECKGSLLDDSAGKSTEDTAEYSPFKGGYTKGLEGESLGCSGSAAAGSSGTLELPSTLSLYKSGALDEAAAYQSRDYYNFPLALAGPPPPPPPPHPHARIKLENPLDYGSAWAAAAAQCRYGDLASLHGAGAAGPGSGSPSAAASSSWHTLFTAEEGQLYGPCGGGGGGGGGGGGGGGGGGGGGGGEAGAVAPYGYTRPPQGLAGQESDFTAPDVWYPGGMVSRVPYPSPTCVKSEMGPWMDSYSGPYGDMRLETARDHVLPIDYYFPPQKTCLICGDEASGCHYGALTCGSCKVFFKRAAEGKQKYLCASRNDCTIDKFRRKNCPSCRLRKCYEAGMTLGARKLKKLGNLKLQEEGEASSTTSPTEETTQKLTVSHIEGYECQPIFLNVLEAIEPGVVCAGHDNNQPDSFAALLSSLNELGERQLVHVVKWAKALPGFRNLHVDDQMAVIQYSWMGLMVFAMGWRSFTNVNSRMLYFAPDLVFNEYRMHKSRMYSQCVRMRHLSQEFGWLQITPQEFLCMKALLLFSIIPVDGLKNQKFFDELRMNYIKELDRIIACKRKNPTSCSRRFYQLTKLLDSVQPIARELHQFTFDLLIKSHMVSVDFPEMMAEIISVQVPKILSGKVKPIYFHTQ

[8] = target: T5, Monoamine oxidase type A (MAOA) (Homo sapiens, UniProt P21397); assay: SAFETYscan Enzymatic assay; format: biochemical; conditions: Inhibitor
T5 construct: purchased Sigma-Aldrich-Merck
T5 sequence (P21397 whole entry): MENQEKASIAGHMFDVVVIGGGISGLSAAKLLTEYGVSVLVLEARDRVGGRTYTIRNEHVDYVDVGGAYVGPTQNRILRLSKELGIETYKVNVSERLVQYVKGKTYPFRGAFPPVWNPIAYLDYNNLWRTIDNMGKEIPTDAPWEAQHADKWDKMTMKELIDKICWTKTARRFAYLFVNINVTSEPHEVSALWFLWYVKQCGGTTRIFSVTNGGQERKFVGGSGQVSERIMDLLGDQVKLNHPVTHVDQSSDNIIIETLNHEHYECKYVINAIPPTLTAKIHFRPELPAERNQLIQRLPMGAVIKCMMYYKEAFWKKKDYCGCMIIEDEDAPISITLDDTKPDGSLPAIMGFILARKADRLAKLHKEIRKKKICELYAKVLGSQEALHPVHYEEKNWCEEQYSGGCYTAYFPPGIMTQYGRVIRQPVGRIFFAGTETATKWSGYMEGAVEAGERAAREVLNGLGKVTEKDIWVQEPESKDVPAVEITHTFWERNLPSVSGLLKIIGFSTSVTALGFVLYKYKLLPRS

CAMK2α = target: T6, CAMK2α (Homo sapiens, UniProt Q9UQM7); assay: PhosphoSens CSox based kinase assay; format: biochemical; conditions: 5 μM HU-MCA-13
T6 construct: amino acids 1-478, Carna (cat. & lot #: 02)
Description: (§1) The initial focus was to measure the modulatory activity in vitro of MCA-13 on protein kinases which were reported to be involved in induction of neurite outgrowth.[18],[43] To do this, we took advantage of a powerful method to measure the activity of recombinant protein kinases using a homogeneous and continuous (kinetic) format, where the level of chelation-enhanced fluorescence (CHEF) is directly proportional to the amount of phosphorylated, real-time sensors consisting of sulfonamido-oxine (Sox) chromophore linked to a peptide or protein substrates of selective kinases.[44] This assay is ideal for elucidating drug mechanism of action and is increasingly being applied earlier in the drug development workflow to address off target effects and/or the challenges and opportunities for next generation protein kinase inhibitors.[45] Since neurotrophins induce neurite outgrowth by activating the different tropomyosin kinase receptors (Trk), and small molecules agonists of Trk receptors can selectively activate Trks,[46] we first investigated the ability of HU-MCA-13 to modulate TRKA, TRKB and TRKC phosphorylation activities (Supporting Information, Figure S3-2). […] The TRKs constructs used in the assay contained only the intracellular kinase domain (amino acids 442–786) and therefore presently we cannot exclude that HU-MCA-13 may interact with the TRKs extracellular domain thereby inducing the conformational change required for the kinase domain activation. […] Moreover, no effects of HU-MCA-13were found on other kinases (ASK1, ERK2, JNK3, p38α, CDK5, KDR-VEGFR, AKT1, GSK3β, PDGFRβ, PKACα, PKC, CK1, IKKβ) which stimulate neurite outgrowth. Also, no effects were observed of HU-MCA-13 on kinases (EGFR, IGF1R, FGFR 1 and 2, CAMK2α,) which inhibit neurite outgrowth or calcineurin phosphatase which dephosphorylates the neurite outgrowth stimulatory protein, cofilin.[47]
(§2) MCA-13 safety b y in vitro eval uati on usi ng Phos pho Sens®C Soxb ased kinase […]
(§3) Method: Kinase Activity Measurements
(§4) Kinase activity was measured continuously using the PhosphoSens®technology (AssayQuant Technologies Inc., Marlborough, MA) according to the manufacturers’ recommendations (http://www.assayquant.com/) . This one-step homogeneous assay use s chelation-enh anced fluorescence via optimized substrate sensors unique for each kinase, containing the unnatural fluorogenic amino-acid Sox.
(§5) The following kinases which, upon stimulation or inhibition with small molecule modulators, induced neurite outgrowth, were obtained from different companies and were used in this study at the following concentrations: 2.
(§6) 25 µL final reaction volume including : 2.5 µl Sox-based substrate (10 x), 17.5 µl reaction mix with AT P, 5.0 µL Kinase [5x in EDB (Enzyme Dilution Buffer : 20 mM TRIS, pH 8.0, 0.01% Brij -35, 0.1 mM EGTA, 5% Glycerol, 1 mM DTT, 1 mg/mL Bovine Serum Albumin]. 5-45 min preincubation (all except EDB/kinase) at 30 °C of substrate in reaction mix and ATP ensuring that the progress kinetic curve for the background fluorescence w as flat. Reaction was run at 30 °C for […]
(§7) Final Reaction Conditions.
(§8) Protein kinase activity was determined in 54 mM HEPES, pH 7.5 1 mM ATP 1.2 mM DTT (none in ASK1) 0.012% Brij-35 1% glycerol 0.2 mg/ml BSA 0.52 mM EGTA (none in assays of CAMK2α, PKCε, PKCι, Calcineurin A/B) 140 µM phosphatidylserine/3.8 µM diacylglycerol (PKCε, PKCι only) 5 ng/µl calmodulin/0.4 mM CaCl2 (CAMK2α, Calcineurin A/B only) 10 mM […]
(§9) IKKβ, AKT1, GSK3β, PKCε, PKCι, PKACα, KDR, CK1δ, EGFR, ASK1, IGF1R, CAMK2α, DLK, FGFR2, FGFR1) in the presence or absence of 5 µ M H U-MCA-13 test compound. All components e xcept enzyme were equilibrated to 30 °C prior to setting up reactions run in Corning, 384-well, white flat round bottom polystyrene NBS microplates (Cat. #3824) after sealing using optically-clear adhesive film [TopSealA -Plus plate seal, PerkinElmer (Cat. #6050185)], applied with a roller to eliminate evaporation and resulting drift. Europium was added to a final […]

CDK5 = target: T7, CDK5 (Homo sapiens, UniProt Q00535); assay: PhosphoSens CSox based kinase assay; format: biochemical; conditions: 5 μM HU-MCA-13
T7 construct: CDK5/p25, amino acids 1 -292/99 -307, Carna; purchased Carna 04-106
Description: as §1, §2, §3, §4, §5, §6, §7, §8, §9

EGFR = target: T8, EGFR (Homo sapiens, UniProt P00533); assay: PhosphoSens CSox based kinase assay; format: biochemical; conditions: 5 μM HU-MCA-13
T8 construct: amino acids 668-1210, BPS Bio (cat. & lot #: 40187,; purchased BPS Bio 40187
T8 sequence (P00533 668-1210): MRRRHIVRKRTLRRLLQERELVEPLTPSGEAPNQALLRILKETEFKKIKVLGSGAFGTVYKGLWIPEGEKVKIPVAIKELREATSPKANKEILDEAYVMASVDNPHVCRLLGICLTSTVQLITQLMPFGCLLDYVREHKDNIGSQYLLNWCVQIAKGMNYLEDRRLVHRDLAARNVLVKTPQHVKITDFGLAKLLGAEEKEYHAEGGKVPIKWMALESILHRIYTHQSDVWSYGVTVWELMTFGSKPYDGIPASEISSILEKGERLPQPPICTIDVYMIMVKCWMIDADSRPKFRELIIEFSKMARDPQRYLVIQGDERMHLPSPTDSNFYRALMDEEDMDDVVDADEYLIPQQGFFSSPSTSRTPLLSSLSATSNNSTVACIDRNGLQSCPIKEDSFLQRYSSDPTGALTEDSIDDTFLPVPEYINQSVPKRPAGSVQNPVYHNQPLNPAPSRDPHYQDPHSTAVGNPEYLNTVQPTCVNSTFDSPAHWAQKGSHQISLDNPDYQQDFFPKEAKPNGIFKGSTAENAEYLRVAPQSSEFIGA
Description: as §1, §2, §3, §4, §5, §6, §7, §8, §9

ERK2 = target: T9, ERK2 (Homo sapiens, UniProt P28482); assay: PhosphoSens CSox based kinase assay; format: biochemical; conditions: 5 μM HU-MCA-13
T9 construct: ERK2, amino acids 1-360, Carna; purchased Carna 04-143
Description: as §1, §2, §3, §4, §5, §6, §7, §8, §9

[9] = read-out: RC50 (the source's name)
[10] = 10 μM, read-out: MCA-13 Max. Responce

Sequence of Adrenergic Receptor α1A (ADRA1A) (P35348 whole entry): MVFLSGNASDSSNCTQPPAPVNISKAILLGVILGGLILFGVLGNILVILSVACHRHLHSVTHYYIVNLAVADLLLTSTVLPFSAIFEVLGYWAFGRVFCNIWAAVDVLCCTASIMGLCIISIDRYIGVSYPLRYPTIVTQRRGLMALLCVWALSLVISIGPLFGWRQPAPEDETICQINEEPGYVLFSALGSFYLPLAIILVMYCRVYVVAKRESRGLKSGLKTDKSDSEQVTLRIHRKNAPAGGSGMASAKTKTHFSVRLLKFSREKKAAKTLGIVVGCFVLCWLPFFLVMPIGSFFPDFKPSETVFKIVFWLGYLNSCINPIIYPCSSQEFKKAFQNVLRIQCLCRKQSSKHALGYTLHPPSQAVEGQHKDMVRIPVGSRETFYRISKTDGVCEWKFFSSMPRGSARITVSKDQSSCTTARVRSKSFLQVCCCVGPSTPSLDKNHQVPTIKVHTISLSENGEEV

C=CCC1CCCC(CCC(=O)O)C1=C (centres unmarked) [HU-MCA-13, 3-(3-allyl-2-methylenecyclohexyl)propanoic acid]
EC50 [1]: > 10 µM
IC50 [1]: > 10 µM
EC50 ([2]; Agonist): > 10 µM
IC50 ([2]; Antagonist): > 10 µM
EC50 [3]: > 10 µM
IC50 [3]: > 10 µM
EC50 [4]: > 10 µM
IC50 [4]: > 10 µM
MCA-13 Max. Responce ([5]; 10 μM): 0%
IC50 [5, 9]: > 10 µM
inhibition at 10 µM [6, 10]: 21.7%
IC50 [6, 9]: > 10 µM
EC50 [7]: > 10 µM
IC50 [7]: > 10 µM
inhibition at 10 µM [8, 10]: 1.86%
IC50 [8, 9]: > 10 µM
effect on kinase activity (CAMK2α): no effects
effect on kinase activity (CDK5): no effects
effect on kinase activity (EGFR): no effects
effect on kinase activity (ERK2): no effects
